Experimental data published in article PMC6887723, “Design and Synthesis of 4-(Heterocyclic Substituted Amino)-1H-Pyrazole-3-Carboxamide Derivatives and Their Potent Activity against Acute Myeloid Leukemia (AML)” (International Journal of Molecular Sciences, 2019).

Columns and labels:
[1] = test system: phosphorylation of the retinoblastoma protein (Rb); assay: Western blot, phosphorylation of Rb in MV4-11 cells; format: cell-based, human; conditions: MV4-11, 4 h; dose-dependent; at 1 μM comparable with AT-7519
Experimental: Analysis of pFLT3, pSTAT5, pERK, pAKT, and pRb in vitro: to determine the levels of pFLT3, pSTAT5, pERK, pAKT, and pRb, cells were seeded in a 6-well cell culture plate at a density of 400,000 cells per well for MV4-11 in a total volume of 1800 μL and incubated overnight in medium containing 10% fetal bovine serum (Life Technologies, Rockville, MD, USA). Then 200 μL of serially diluted compounds were added to each well the next day. Cell lysates were harvested after 4 h and pFLT3, pSTAT5, pERK, pAKT, or pRb were quantified using assay kits for FLT3/Phospho-FLT3Tyr589/591, pSTAT5 (Tyr694)/total STAT5, pRb (Ser807)/total Rb (Nanjin keyGen Biotech Company, Nanjing, China) following the manufacturer’s protocols.

MV4-11 cells = assay: Cell apoptosis assay (Annexin V-FITC/PI, flow cytometry); format: cell-based, human; conditions: MV4-11, 2 μM, 24 h
Experimental: The apoptosis of MV4-11 cells was determined by Annexin V-FITC/PI assay. Annexin V binds to phosphatidylserine, which is exposed on the cell membrane and is one of the earliest indicators of cellular apoptosis. PI (Propidium Iodide) is used as a DNA stain for both flow cytometry to evaluate cell viability or DNA content in cell cycle analysis and microscopy to visualize the nucleus and other DNA containing organelles. It can be used to differentiate necrotic, apoptotic, and normal cells. Cells (2 × 10^5) were seeded in 6-well plate and were treated with varying concentrations of inhibitor for 24 h. MV4-11 cells were collected and incubated with FITC-conjugated Annexin V (Nanjing keyGen Biotech Company, Nanjing, China). The nuclei were then counterstained with PI. After the dual staining, the cells were screened by a FAC Scan flow cytometer (FACS Calibun, Becton Dickinson, Nanjing, China). The upper left corner of the quadrant represents debris, lower left are live cells, upper right are advanced apoptotic or necrotic cells and lower right are apoptotic cells.

FLT4/VEGFR3 = biological target: T1, FLT4/VEGFR3 (Homo sapiens, UniProt P35916); assay: Hot-Spot kinase profiling; format: biochemical
T1 construct: purchased Reaction Biology Corp
Experimental: (§1) Activities of kinases were determined using Hot-SpotSM kinase assay which was performed by Reaction Biology Corp. (Malvern PA, USA) as described previously.

CDK7/cyclin H = biological target: T2, CDK7/cyclin H (Homo sapiens, UniProt P50613); assay: Hot-Spot kinase profiling; format: biochemical
T2 construct: purchased Reaction Biology Corp
Experimental: as §1

CDK5/p35 = biological target: T3, CDK5/p35 (Homo sapiens, UniProt Q00535); assay: Hot-Spot kinase profiling; format: biochemical
T3 construct: purchased Reaction Biology Corp
Experimental: as §1

NCI-H226 = assay: NCI60 screening; format: cell-based; conditions: Homo sapiens, Non-Small Cell Lung Cancer panel
Excerpt: (§2) With these findings, we submitted compound 8t to National Cancer Institute (NCI) to evaluate their antitumor efficacy against 60 human cancer cell lines.

HS 578T = assay: NCI60 screening; format: cell-based; conditions: Homo sapiens, Breast Cancer panel
Excerpt: as §2

SN12C = assay: NCI60 screening; format: cell-based; conditions: Homo sapiens, Renal Cancer panel
Excerpt: as §2

HOP-92 = assay: NCI60 screening; format: cell-based; conditions: Homo sapiens, Non-Small Cell Lung Cancer panel
Excerpt: as §2

BT-549 = assay: NCI60 screening; format: cell-based; conditions: Homo sapiens, Breast Cancer panel
Excerpt: as §2

NCI-H23 = assay: NCI60 screening; format: cell-based; conditions: Homo sapiens, Non-Small Cell Lung Cancer panel
Excerpt: as §2

HCC-2998 = assay: NCI60 screening; format: cell-based; conditions: Homo sapiens, Colon Cancer panel
Excerpt: as §2

SW-620 = assay: NCI60 screening; format: cell-based; conditions: Homo sapiens, Colon Cancer panel
Excerpt: as §2

M14 = assay: NCI60 screening; format: cell-based; conditions: Homo sapiens, Melanoma panel
Excerpt: as §2

IGROV1 = assay: NCI60 screening; format: cell-based; conditions: Homo sapiens, IGROV-1; Ovarian Cancer panel
Excerpt: as §2

MALME-3M = assay: NCI60 screening; format: cell-based; conditions: Homo sapiens, Melanoma panel
Excerpt: as §2

CAKI-1 = assay: NCI60 screening; format: cell-based; conditions: Homo sapiens, Renal Cancer panel
Excerpt: as §2

SF-268 = assay: NCI60 screening; format: cell-based; conditions: Homo sapiens, CNS Cancer panel
Excerpt: as §2

KM12 = assay: NCI60 screening; format: cell-based; conditions: Homo sapiens, Colon Cancer panel
Excerpt: as §2

U251 = assay: NCI60 screening; format: cell-based; conditions: Homo sapiens, U-251; CNS Cancer panel
Excerpt: as §2

NCI-H322M = assay: NCI60 screening; format: cell-based; conditions: Homo sapiens, Non-Small Cell Lung Cancer panel
Excerpt: as §2

A549/ATCC = assay: NCI60 screening; format: cell-based; conditions: Homo sapiens, Non-Small Cell Lung Cancer panel
Excerpt: as §2

TK-10 = assay: NCI60 screening; format: cell-based; conditions: Homo sapiens, Renal Cancer panel
Excerpt: as §2

T-47D = assay: NCI60 screening; format: cell-based; conditions: Homo sapiens, T47D; Breast Cancer panel
Excerpt: as §2

MDA-MB-435 = assay: NCI60 screening; format: cell-based; conditions: Homo sapiens, Melanoma panel
Excerpt: as §2

SK-MEL-28 = assay: NCI60 screening; format: cell-based; conditions: Homo sapiens, Melanoma panel
Excerpt: as §2

ACHN = assay: NCI60 screening; format: cell-based; conditions: Homo sapiens, Renal Cancer panel
Excerpt: as §2

UACC-62 = assay: NCI60 screening; format: cell-based; conditions: Homo sapiens, Melanoma panel
Excerpt: as §2

SR = assay: NCI60 screening; format: cell-based; conditions: Homo sapiens, Leukemia panel
Excerpt: as §2

K-562 = assay: NCI60 screening; format: cell-based; conditions: Homo sapiens, K562; Leukemia panel
Excerpt: as §2

UO-31 = assay: NCI60 screening; format: cell-based; conditions: Homo sapiens, Renal Cancer panel
Excerpt: as §2

NCI/ADR-RES = assay: NCI60 screening; format: cell-based; conditions: Homo sapiens, Ovarian Cancer panel
Excerpt: as §2

SNB-19 = assay: NCI60 screening; format: cell-based; conditions: Homo sapiens, CNS Cancer panel
Excerpt: as §2

T2 sequence (P50613 whole entry): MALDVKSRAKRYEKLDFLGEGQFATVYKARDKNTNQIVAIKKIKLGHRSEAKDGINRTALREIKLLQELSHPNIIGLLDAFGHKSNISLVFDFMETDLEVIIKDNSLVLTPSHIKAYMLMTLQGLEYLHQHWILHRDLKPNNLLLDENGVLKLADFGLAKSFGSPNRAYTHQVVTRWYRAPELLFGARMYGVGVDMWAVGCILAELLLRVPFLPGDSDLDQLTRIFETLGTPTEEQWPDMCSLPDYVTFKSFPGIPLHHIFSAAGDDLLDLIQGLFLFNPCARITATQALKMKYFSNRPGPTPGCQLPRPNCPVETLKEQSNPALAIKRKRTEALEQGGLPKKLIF
T2 sequence (P51946 whole entry partner): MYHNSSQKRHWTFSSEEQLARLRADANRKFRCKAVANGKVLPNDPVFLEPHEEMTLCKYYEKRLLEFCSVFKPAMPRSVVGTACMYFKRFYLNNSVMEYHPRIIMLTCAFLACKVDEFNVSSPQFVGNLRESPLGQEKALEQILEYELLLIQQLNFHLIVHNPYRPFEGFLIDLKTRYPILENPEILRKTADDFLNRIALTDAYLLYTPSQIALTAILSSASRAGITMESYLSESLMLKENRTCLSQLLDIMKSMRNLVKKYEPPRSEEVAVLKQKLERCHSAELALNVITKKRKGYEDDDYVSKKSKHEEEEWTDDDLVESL
T2 sequence (P51948 whole entry partner): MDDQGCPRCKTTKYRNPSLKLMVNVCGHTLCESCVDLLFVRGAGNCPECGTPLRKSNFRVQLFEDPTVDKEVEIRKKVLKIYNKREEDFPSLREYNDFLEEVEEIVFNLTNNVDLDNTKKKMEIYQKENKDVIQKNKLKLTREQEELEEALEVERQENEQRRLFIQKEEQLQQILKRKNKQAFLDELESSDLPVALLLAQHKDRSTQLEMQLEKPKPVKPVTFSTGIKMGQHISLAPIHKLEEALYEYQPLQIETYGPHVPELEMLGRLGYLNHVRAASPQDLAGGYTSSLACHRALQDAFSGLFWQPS
T3 sequence (Q00535 whole entry): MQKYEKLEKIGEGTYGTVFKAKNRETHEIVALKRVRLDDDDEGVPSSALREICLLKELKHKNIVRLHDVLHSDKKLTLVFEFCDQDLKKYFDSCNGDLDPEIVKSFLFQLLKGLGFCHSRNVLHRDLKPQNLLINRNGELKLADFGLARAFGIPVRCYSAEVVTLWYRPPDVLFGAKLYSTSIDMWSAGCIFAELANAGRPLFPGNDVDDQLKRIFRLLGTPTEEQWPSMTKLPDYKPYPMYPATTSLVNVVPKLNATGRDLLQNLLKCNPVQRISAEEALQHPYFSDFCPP
T3 sequence (Q15078 whole entry partner): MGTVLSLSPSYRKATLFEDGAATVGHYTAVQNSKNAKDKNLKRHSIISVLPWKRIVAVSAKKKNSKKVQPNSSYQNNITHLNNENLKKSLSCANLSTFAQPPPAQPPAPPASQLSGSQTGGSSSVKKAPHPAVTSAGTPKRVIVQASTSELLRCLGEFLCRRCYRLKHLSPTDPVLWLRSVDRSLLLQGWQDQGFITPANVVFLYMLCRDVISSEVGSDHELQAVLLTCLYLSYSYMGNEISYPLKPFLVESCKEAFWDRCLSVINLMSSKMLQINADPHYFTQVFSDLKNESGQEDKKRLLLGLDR
T1 sequence (P35916 25-1363): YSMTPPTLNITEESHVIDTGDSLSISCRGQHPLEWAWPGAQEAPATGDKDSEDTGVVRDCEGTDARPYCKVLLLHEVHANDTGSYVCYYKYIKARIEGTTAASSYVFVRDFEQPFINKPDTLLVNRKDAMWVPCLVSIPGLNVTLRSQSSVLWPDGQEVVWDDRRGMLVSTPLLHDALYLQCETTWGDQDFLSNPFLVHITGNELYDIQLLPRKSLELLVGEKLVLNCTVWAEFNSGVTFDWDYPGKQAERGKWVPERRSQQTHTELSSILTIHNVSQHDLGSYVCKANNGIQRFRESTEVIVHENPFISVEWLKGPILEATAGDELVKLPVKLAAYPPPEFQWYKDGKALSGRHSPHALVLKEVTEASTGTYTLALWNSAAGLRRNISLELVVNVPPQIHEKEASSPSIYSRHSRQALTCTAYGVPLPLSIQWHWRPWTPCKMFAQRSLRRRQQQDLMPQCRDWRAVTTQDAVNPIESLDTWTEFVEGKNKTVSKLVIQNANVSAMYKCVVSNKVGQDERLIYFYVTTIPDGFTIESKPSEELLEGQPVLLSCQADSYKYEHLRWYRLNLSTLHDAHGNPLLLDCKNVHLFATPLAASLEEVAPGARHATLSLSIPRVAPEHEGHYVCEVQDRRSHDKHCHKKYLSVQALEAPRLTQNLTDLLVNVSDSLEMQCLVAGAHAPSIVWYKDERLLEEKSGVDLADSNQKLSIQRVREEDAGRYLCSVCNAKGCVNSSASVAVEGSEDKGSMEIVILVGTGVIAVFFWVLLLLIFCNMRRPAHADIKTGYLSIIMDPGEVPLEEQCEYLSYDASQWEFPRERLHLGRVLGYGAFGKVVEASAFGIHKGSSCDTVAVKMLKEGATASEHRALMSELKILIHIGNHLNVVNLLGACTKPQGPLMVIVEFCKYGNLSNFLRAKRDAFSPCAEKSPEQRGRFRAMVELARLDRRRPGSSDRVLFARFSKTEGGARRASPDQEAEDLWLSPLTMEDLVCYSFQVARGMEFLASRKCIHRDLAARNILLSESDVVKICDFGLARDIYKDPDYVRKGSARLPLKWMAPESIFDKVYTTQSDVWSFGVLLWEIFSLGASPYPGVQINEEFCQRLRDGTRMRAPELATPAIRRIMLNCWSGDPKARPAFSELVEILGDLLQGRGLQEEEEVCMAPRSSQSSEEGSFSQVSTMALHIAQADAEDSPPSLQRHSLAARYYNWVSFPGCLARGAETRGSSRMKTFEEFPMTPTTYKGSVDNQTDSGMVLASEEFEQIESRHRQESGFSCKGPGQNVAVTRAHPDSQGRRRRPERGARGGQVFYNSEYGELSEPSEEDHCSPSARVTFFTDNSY

In the case of `O=C(Nc1ccc(N2CCNCC2)cc1)c1n[nH]cc1Nc1ncnc2sc3c(c12)CCC3` [Compound 8t], the “phosphorylation of the retinoblastoma protein (Rb)” value [1] is reported as “inhibited”, the apoptosis rate (MV4-11 cells) is reported as 51.36% and the remaining activity at 0.15 µM (FLT4/VEGFR3; 0.15 μM, read-out: % Enzyme Activity (Relative to DMSO Controls) FLT4/VEGFR3) is reported as 3.62%. It also gave an IC50 (FLT4/VEGFR3; Table 5 kinase profiling) of 0.00416 ± 0.00019 µM, a remaining activity at 0.15 µM (CDK7/cyclin H; 0.15 μM, read-out: % Enzyme Activity (Relative to DMSO Controls) CDK7/cyclin H) of 19.9% and an IC50 (CDK7/cyclin H; Table 5 kinase profiling) of 0.0213 ± 0.00101 µM. For the same compound, the remaining activity at 0.15 µM (CDK5/p35; 0.15 μM, read-out: % Enzyme Activity (Relative to DMSO Controls) CDK5/p35) was 9.6%, the IC50 (CDK5/p35; Table 5 kinase profiling) was 0.00964 ± 0.00081 µM and the GI50 (NCI-H226) was 0.32 µM. It also gave a GI50 (HS 578T) of 0.1 µM, a GI50 (SN12C) of 0.45 µM and a GI50 (HOP-92) of 0.04 µM. The GI50 (BT-549) was 1.02 µM, the GI50 (NCI-H23) was 0.26 µM and the GI50 (HCC-2998) was 1.2 µM. It also gave a GI50 (SW-620) of 0.12 µM, a GI50 (M14) of 0.12 µM and a GI50 (IGROV1) of 0.12 µM. The GI50 (MALME-3M) was 0.24 µM, the GI50 (CAKI-1) was 0.08 µM and the GI50 (SF-268) was 0.72 µM. It also gave a GI50 (KM12) of 0.17 µM, a GI50 (U251) of 0.11 µM and a GI50 (NCI-H322M) of 0.14 µM. The GI50 (A549/ATCC) was 0.14 µM, the GI50 (TK-10) was 0.47 µM and the GI50 (T-47D) was 0.59 µM. It also gave a GI50 (MDA-MB-435) of 0.11 µM, a GI50 (SK-MEL-28) of 1.13 µM and a GI50 (ACHN) of 0.16 µM. For the same compound, the GI50 (UACC-62) was 1.09 µM, the GI50 (SR) was 0.06 µM and the GI50 (K-562) was 0.12 µM. The GI50 (UO-31) was 0.4 µM, the GI50 (NCI/ADR-RES) was 1.48 µM and the GI50 (SNB-19) was 0.24 µM.
